Converted amounts (≈) assume the structure as drawn.

Experimental findings from ChEMBL document CHEMBL5325427 are described below.

For the test, the system named is SARS-CoV-2. Description: Antiviral activity against SARS CoV-2 DG614G infected human Vero cells overexpressing ACE2 compound preincubated with cells for 1 hr followed by viral infection and measured after 24 hrs by flow cytometry analysis. The settings on record: Severe acute respiratory syndrome coronavirus 2, DG614G. It counts as functional, organism-based.

In turn, `COc1ccc2[nH]c3c(c2c1)C[C@]1(OC)CC[C@H]2c4[nH]c5ccccc5c4CCN2[C@@H]1C3` showed an IC50 of 0.06 µg/mL (≈ 0.14 µM).
